Measured values published in US20190125735A1, “INHIBITION OF P38 MAPK FOR THE TREATMENT OF CANCER” (Board of Regents, The University of Texas System, priority 2015, published 2019).
Entries after “also recorded” stand apart in the source; their conditions may differ.

Key:
[1] = system: HMLE-Snail, HMLE-Twist, MDA-MB-231 and SUM159 cells; experiment: Sphere formation of mesenchymal mammary cells; type: cell-based, human; conditions: relative to vehicle-treated cells
Description: It was next ascertained whether p38 inhibition compromises the maintenance of the established EMT phenotype.
Quantification of invadopodia (Eckert et al., 2011), scratch/wound-healing assays (Sarkar et al., 2015) fluorescence-activated cell sorting (FACS), and sphere-formation assays (Mani et al., 2008) were conducted as described previously.

HMLE-Snail-ER cells = experiment: 4-OHT inducible EMT in HMLE-Snail-ER cells, immunoblotting; type: cell-based, human; conditions: HMLE-Snail-ER concurrently exposed to 4-OHT and SB203580
Description: To ascertain whether inhibiting p38 impedes the initiation of EMT, two dynamic models of EMT induction were utilized. First, MCF10A immortalized human mammary epithelial cells were treated with TGFβ1 which elicits EMT. […] Second, an inducible EMT system was used wherein a fusion protein, comprising the EMT-inducing transcription factors Snail or Twist and the estrogen-binding domain of the estrogen receptor (ER), is stably expressed in epithelial HMLE cells (HMLE-Snail-ER, HMLE-Twist-ER). Addition of the ER-ligand tamoxifen (4-OHT) promotes nuclear translocation of the Snail-ER and Twist-ER proteins and elicits EMT. […] Similarly, p38 shRNA abolished the capacity of HMLE-Twist-ER cells to undergo EMT (FIG. 4E, compare lanes 4 to 8) and to form spheres (FIG. 16F) in response to 4-OHT treatment.
Immortalized human mammary epithelial (HMLE) cells expressing empty vector (pWZL), Snail, Twist, Goosecoid (GSC), or an activated form of TGFβ1, V12H-Ras-transformed HMLE (HMLER) and HMLER-FOXC2 cells were maintained as previously described (Elenbaas et al., 2001) For 4-hydroxy-tamoxifen (4-OHT) treatment, HMLE-Snail-ER or HMLE-Twist-ER cells were exposed to 20 nM 4-OHT for the indicated number of days. MCF7, MDA-MB-231 and SUM159 human breast cancer cells and the 4T1 mouse mammary carcinoma cells were cultured as described. […]

Foxc2 = experiment: Foxc2/FOXC2 protein immunoblotting in 4T1 cells; type: cell-based, mouse
MDA-MB-231 cells = experiment: Experimental metastasis model, MDA-MB-231 cells via tail vein of NOD/SCID mice; type: in vivo, mouse; conditions: daily injection beginning 48 h post-implantation
From the text: Since many breast cancer patients harbor occult micrometastases, at the time of diagnosis, and metastasis is often attributed to the systemic dissemination of tumor cells before or during surgical resection of the primary tumor (Pantel et al., 1999; Fehm et al., 2008), it was examined whether p38 inhibition could also prevent colonization and progression to macrometastasis. For this, an experimental metastasis model was employed, which circumvents the early steps of the metastatic cascade. Luciferase-labeled MDA-MB-231 cells were injected via the tail vein of NOD/SCID mice, and the emergence of lung metastases were monitored using bioluminescence. […] To eliminate the possibility of “off-target” effects, mice were intravenously injected with MDA-MB-231 cells expressing either control shRNA or p38 shRNA.
NOD/SCID and BALB/c mice were purchased from the Jackson Laboratory (Bar Harbor, Me., USA). […] Mice were assessed weekly for tumor growth and metastasis via subcutaneous injection of D-Luciferin (150 mg/kg; Caliper LifeSciences, Hopkinton, Mass., USA) and bioluminescent imaging (IVIS imaging system 200 series; Xenogen Corporation, PerkinElmer, Waltham, Mass., USA). Primary tumor size was measured with a caliper as the product of two perpendicular diameters (mm^2). […]

[2] = system: BCR-ABL+ mouse ALL cells seeded on MSCs (OP9 cells); experiment: Clinical compound library screen, imatinib-pretreated MSC / BCR-ABL+ ALL cell co-culture; type: cell-based
Description: The effectiveness of the compounds was determined in preventing cluster formation by microscopy and the toxicity of the compounds by bioluminescence imaging of co-cultured MSCs and leukemic cells.
The clinical compounds library was purchased from the John S. Dunn Gulf Coast Consortium for Chemical Genomics (Houston, Tex.). […] Then, luciferase-labeled BCR-ABL+ mouse ALL cells were seeded on to the MSCs. Treatment was continued for 1 day, and the samples were evaluated via phase-contrast microscopy for the formation of leukemic cell clusters underneath the pretreated MSCs. To determine the compounds' toxicity in MSCs or leukemic cells, we examined the MSC/ALL cell co-cultures via microscopy and/or bioluminescence imaging.
Phase-contrast images of co-cultured MSCs and ALL cells were obtained using an Axio Observer.Z1 microscope, an AxioCam MR camera, and AxioVision software (Zeiss, Oberkochen, Germany). For screening, a cluster was defined as a group of more than five leukemic cells under the MSCs. The total number of leukemic cell clusters was the average number of clusters from three different fields (10× objective). For post-screening experiments, a cluster was defined as a group of more than 10 leukemic cells under the MSCs. The total number of leukemic cell clusters was the average number of clusters from 10 different fields (10× objective).

DU145 cells = experiment: DU145 subcutaneous tumors in NOD/SCID mice; type: in vivo; conditions: subcutaneous dosing 5 days/week; SB203580 0.2 μmols per mouse, Enzalutamide 10 mg/kg; vs vehicle
Description: To investigate the effect of inhibition of FOXC2-dependent EMT/CSC attributes on tumor formation in vivo, NOD/SCID mice were subcutaneously injected with DU145 cells and began treatment in vivo, after formation of palpable tumors.
Immediately after sacrificing the mice, ˜100 μl blood was isolated via venipuncture in EDTA-treated collection tubes and stored on ice. Within 30 minutes, the blood was spun down at 1200 rpm for 5 minutes, and the pellet resuspended in 1 ml ACK-lysing buffer (Life Tech) and further incubated for 3-5 minutes. Cells were washed once with PBS, resuspended in RPMI with 10% FBS and pen/strep, and cultured on 10 cm tissue culture dishes. RFP-positive colonies (originating from the labeled DU145 cells injected into mice) were counted after 3-4 days in culture and quantified.
˜4 week-old male NOD.CB17-Prkdcscid/J mice were purchased from the Jackson Laboratory (Maine, USA). […] Once palpable tumors were discernable, tumor-bearing mice were randomly segregated into 4 groups, and drug treatment was initiated every 24 hours for 5 days/week. […] Investigators were blinded to the group allocation while assessing experimental outcomes. At the end of the treatment period, tumors were excised, average diameter calculated using calipers, and tumor weight noted. […]

With `C[S+]([O-])c1ccc(-c2nc(-c3ccc(F)cc3)c(-c3ccncc3)[nH]2)cc1` (stereo not drawn) [SB203580, 4-(4-Fluorophenyl)-2-(4-methylsulfinylphenyl)-5-(4-pyridyl) 1H-imidazole] the Sphere-formation [1] was “substantially reduced sphere-formation”, the “EMT and FOXC2 upregulation” value (HMLE-Snail-ER cells) was “failed to undergo EMT or upregulate FOXC2” and the “Phosphomimetic FOXC2(S367E) levels” value (Foxc2; 4T1-FOXC2(S367E) cells) was “remained unaltered”. The “Endogenous Foxc2 protein levels” value (Foxc2; 4T1 cells, 24 h) was “significant reduction of endogenous Foxc2 protein levels”, the “Endogenous Foxc2 protein levels” value (Foxc2; vector-transduced 4T1 cells) was “abolished endogenous Foxc2 protein levels” and the Event-free survival (MDA-MB-231 cells) was “extended event-free survival”. The “Metastatic burden (lung)” value (MDA-MB-231 cells) was “significantly reduced the metastatic burden”, the “Imatinib-induced leukemic cell cluster formation” value [2] was “directly prevented imatinib-induced leukemic cell cluster formation; also recorded: potently inhibited the formation of imatinib-induced leukemic cell clusters” and the “Tumor size (volume and weight)” value (DU145 cells) was “no appreciable change in tumor size”.
